From patent publication US6248309A, “Gums containing antimicrobial agents” (priority 1999, dated 2001)

Tests used:
[1] = tested on: Actinomyces viscosus (AV); assay: MIC of agents alone and in two-agent combination (Example 1); type: cell-based, Actinomyces viscosus ATCC 19246; conditions: concentration of chloramphenicol (agent A)
Procedure: (§1) The following example illustrates how the MIC of individual antimicrobial agents that are combined were determined and also illustrates how the MIC of the antimicrobial agents in combination were determined.
(§2) A microtiter plate was used to dilute the antimicrobial agents to varying concentrations in order to determine the MIC of those antimicrobial agents alone and the MIC of the agents when combined.
(§3) A bacterial culture was incubated at 37° C. Prior to the dilution of the antimicrobial agents as described below, the bacterial culture was spun down at 2,000 rpm into a pellet and resuspended in a solution of buffered phosphate. The innoculum was normalized with a spectrophotometer to an optical density at 550 nanometers of between 0.180-0.220 (equivalent to 5.0×10^7 colony forming units, CFU per milliliter). The innoculum was set aside until the completion of the antimicrobial agent dilution. […]
(§4) Following 48 hours of incubation, the incubated plate was read for microbial growth with a spectrophotometer by optical density (OD). The well containing the lowest dilution achievable for each agent with a spectrophotometer reading below 0.05 OD (i.e., no detectable microbial growth) was considered representative for the combination. The MIC for each agent in the combination was determined by accounting for the starting stock solution concentration and the resulting dilutions in the 96-well plate. […]

[2] = tested on: Fusobacterium nucleatum (FN); assay: as above; type: cell-based, Fusobacterium nucleatum ATCC 10933; conditions: concentration of chloramphenicol (agent A)
Procedure: as §1, §2, §3, §4

[3] = tested on: Porphyromonas gingivalis (PG); assay: as above; type: cell-based, Porphyromonas gingivalis ATCC 33277; conditions: concentration of chloramphenicol (agent A)
Procedure: as §1, §2, §3, §4

[4] = tested on: Streptococcus mutans (SM); assay: as above; type: cell-based, Streptococcus mutans ATCC 25175; conditions: concentration of chloramphenicol (agent A)
Procedure: as §1, §2, §3, §4

[5] = tested on: Streptococcus sanguis (SS); assay: as above; type: cell-based, Streptococcus sanguis ATCC 49295; conditions: concentration of chloramphenicol (agent A)
Procedure: as §1, §2, §3, §4

[6] = tested on: Actinomyces viscosus (AV); assay: MIC of individual antimicrobial agents (Example 4); type: cell-based, Actinomyces viscosus ATCC 19246; conditions: Table 18
Description: (§5) The following example illustrates how antimicrobial agents useful in gum compositions of the present invention retard or prevent the growth of dental plaque bacteria present in the oral cavity. In addition, the example illustrates the lowest concentration of various antimicrobial agents that will inhibit visible in vitro growth of a particular bacteria.
(§6) The assay used a microtiter plate to dilute the antimicrobial agent to varying concentrations in order to determine the MIC.
(§7) A bacteria culture was incubated overnight at 37° C. Prior to dilution of the antimicrobial agents as described below, the bacterial culture was spun down at 2000 rpm into a pellet and resuspended in a solution of buffered phosphate. […]
as §4, with “The 96-well plate was incubated under conditions that varied depending on the particular microorganism. […] Following” for “Following”, “spectraphotometer” for “spectrophotometer”, “achievable” for “achievable for each agent”, “antimicrobial agent.” for “combination.”, “the” for “each”, “agent” for “agent in the combination”

[7] = tested on: Fusobacterium nucleatum (FN); assay: MIC of individual antimicrobial agents (Example 4); type: cell-based, Fusobacterium nucleatum ATCC 10933; conditions: Table 18
Description: as §5, §6, §7
as §4, with “The 96-well plate was incubated under conditions that varied depending on the particular microorganism. […] Following” for “Following”, “spectraphotometer” for “spectrophotometer”, “achievable” for “achievable for each agent”, “antimicrobial agent.” for “combination.”, “the” for “each”, “agent” for “agent in the combination”

[8] = tested on: Porphyromonas gingivalis (PG); assay: MIC of individual antimicrobial agents (Example 4); type: cell-based, Porphyromonas gingivalis ATCC 33277; conditions: Table 18
Description: as §5, §6, §7
as §4, with “The 96-well plate was incubated under conditions that varied depending on the particular microorganism. […] Following” for “Following”, “spectraphotometer” for “spectrophotometer”, “achievable” for “achievable for each agent”, “antimicrobial agent.” for “combination.”, “the” for “each”, “agent” for “agent in the combination”

[9] = tested on: Streptococcus mutans (SM); assay: MIC of individual antimicrobial agents (Example 4); type: cell-based, Streptococcus mutans ATCC 25175; conditions: Table 18
Description: as §5, §6, §7
as §4, with “The 96-well plate was incubated under conditions that varied depending on the particular microorganism. […] Following” for “Following”, “spectraphotometer” for “spectrophotometer”, “achievable” for “achievable for each agent”, “antimicrobial agent.” for “combination.”, “the” for “each”, “agent” for “agent in the combination”

[10] = tested on: Streptococcus sanguis (SS); assay: MIC of individual antimicrobial agents (Example 4); type: cell-based, Streptococcus sanguis ATCC 49295; conditions: Table 18
Description: as §5, §6, §7
as §4, with “The 96-well plate was incubated under conditions that varied depending on the particular microorganism. […] Following” for “Following”, “spectraphotometer” for “spectrophotometer”, “achievable” for “achievable for each agent”, “antimicrobial agent.” for “combination.”, “the” for “each”, “agent” for “agent in the combination”

Which “MIC of Chloramphenicol alone and when combined with Agent B” value (shortened to “MIC … with Agent B”) [1] does the source give for `O=C(NC(CO)C(O)c1ccc([N+](=O)[O-])cc1)C(Cl)Cl` (stereo not shown) [CR1, 2,2-dichloro-N-[2-hydroxyl-1-(hydroxymethyl)-2-(4-nitrophenyl)ethyl]acetamide] here?
Its value is 5.4 µg/mL.

What about the “MIC … with Agent B” value [2] of the same molecule?
The value was 1.8 µg/mL.

What about the “MIC … with Agent B” value [3] of the same molecule?
The value was 6.9 µg/mL.

What about the “MIC … with Agent B” value [4] of the same molecule?
The value was 5.2 µg/mL.

And the “MIC … with Agent B” value [5]?
The value was 3.2 µg/mL.

And the MIC [6]?
The MIC was 3.1 µg/mL.

What about the MIC [7] of the same molecule?
Its MIC is 3.1 µg/mL.

What about the MIC [8] of the same molecule?
Its MIC is 6.3 µg/mL.

What about the MIC [9] of the same molecule?
Its MIC is 3.1 µg/mL.

What about the MIC [10] of the same molecule?
Its MIC is 3.1 µg/mL.
